{"source": "paper PMC4929687", "about": "(Scientific Reports, 2014)", "target": "T1, human kidney-type glutaminase (KGA), catalytic domain (cKGA) (Homo sapiens, UniProt O94925)", "T1 sequence (O94925 221-533)": "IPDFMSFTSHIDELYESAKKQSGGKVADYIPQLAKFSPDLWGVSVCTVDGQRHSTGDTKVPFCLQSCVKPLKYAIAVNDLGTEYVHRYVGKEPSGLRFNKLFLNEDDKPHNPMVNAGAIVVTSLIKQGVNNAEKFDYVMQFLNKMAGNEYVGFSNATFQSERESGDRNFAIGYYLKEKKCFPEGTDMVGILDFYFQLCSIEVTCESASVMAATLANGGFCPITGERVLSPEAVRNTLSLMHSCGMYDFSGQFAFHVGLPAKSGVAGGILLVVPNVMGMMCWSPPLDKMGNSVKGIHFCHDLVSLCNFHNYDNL", "assay": "X-ray crystal structure at […] Å", "type": "biochemical", "data": [{"smiles": "[N-]=[N+]=CC(=O)CC[C@H](N)C(=O)O", "note": "[DON, 6-diazo-5-oxo-L-norleucine]", "values": [{"measurement": "IC50", "value": "~1000", "unit": "µM"}]}]}
